Test results reported in patent US8378117B2 (priority 2005, dated 2013).
Where two headings read alike, the source gives them in different places.

Key:
CB1 receptor [1] = molecular target: T1, CB1 receptor (Homo sapiens, UniProt P21554); test: Binding assay for CB1 agonists or inverse agonists (SK-N-MC membranes, [3H]-CP-55,940); conditions: for IC50: Cannabinoid CB1 Receptor Binding IC50, calculated by linear regression from percent inhibition at various test concentrations; for inhibition at 1 µM: read-out: CB1 receptor binding percent inhibition, test concentration 1 μM (footnote 1)
T1 construct: expressed in transfected cells
T1 sequence (P21554 whole entry): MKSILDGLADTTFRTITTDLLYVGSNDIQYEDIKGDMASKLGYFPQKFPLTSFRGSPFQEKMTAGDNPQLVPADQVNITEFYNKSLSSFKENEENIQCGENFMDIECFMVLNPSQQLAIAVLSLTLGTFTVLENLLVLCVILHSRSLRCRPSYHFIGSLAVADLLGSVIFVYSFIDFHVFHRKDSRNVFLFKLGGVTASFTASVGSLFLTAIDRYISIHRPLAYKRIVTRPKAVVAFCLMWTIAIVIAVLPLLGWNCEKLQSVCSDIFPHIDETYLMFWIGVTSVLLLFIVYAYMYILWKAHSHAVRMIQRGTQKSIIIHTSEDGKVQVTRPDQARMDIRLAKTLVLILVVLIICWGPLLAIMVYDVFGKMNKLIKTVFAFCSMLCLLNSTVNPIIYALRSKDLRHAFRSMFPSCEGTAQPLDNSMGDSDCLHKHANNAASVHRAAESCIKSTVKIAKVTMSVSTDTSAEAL
Outline: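 Radioligand displacement: [3H]-CP-55,940 at […], 90 min at 30° C, pH 7.5 Tris buffer with 0.5 mg/mL fatty-acid-free BSA, using semi-purified membranes of human-CB1-transfected SK-N-MC cells. Bound counts collected on GF/C filters, 10 uM WIN 55,212 for non-specific; IC50 from percent inhibition over several concentrations.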

CB2 receptor [2] = molecular target: T2, CB2 receptor (Homo sapiens, UniProt P34972); test: Binding assay for CB2 agonists or inverse agonists (SK-N-MC membranes, [3H]-CP-55,940); conditions: for IC50: Cannabinoid CB2 Receptor Binding IC50, calculated by linear regression from percent inhibition at various test concentrations; for inhibition at 0.2 µM: read-out: CB2 receptor binding percent inhibition, test concentration 0.2 μM (footnote 2)
T2 construct: expressed in transfected cells
T2 sequence (P34972 whole entry): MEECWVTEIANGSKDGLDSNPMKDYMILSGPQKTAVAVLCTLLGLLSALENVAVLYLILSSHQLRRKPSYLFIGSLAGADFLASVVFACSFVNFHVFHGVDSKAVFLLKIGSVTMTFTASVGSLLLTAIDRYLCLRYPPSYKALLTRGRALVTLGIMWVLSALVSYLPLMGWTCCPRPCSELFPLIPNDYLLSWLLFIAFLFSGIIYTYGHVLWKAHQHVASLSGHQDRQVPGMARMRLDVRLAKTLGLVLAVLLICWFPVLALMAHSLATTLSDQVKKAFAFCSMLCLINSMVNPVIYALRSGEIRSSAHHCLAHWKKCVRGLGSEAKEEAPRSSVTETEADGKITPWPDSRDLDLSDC
Outline: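 IC50 came from percent-inhibition data over several compound concentrations, fitted by linear regression. Binding used semi-purified membranes of human CB2-transfected SK-N-MC cells, 90 min at 30 °C, pH 7.5 Tris-HCl with MgCl2, EDTA and BSA, then filtration and scintillation counting.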

CB1 receptor [3] = molecular target: T1, CB1 receptor; test: cell-based; conditions: CB1 Receptor Functional Agonist EC50, SK-N-MC cells, forskolin induced β-galactosidase activity
Outline: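 Read-out is forskolin-driven CRE-β-gal reporter activity in stably transfected human-CB1 SK-N-MC cells, normalised to vehicle (100%); agonism lowers, inverse agonism raises signal. Values are EC50 (linear regression, multiple concentrations) or % change at one concentration.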

CB2 receptor [4] = molecular target: T2, CB2 receptor; test: Functional cell-based assay, CB2 receptor mediated change in CRE β-gal expression (SK-N-MC cells); conditions: CB2 Receptor Functional Agonist EC50, forskolin induced β-galactosidase activity, SK-N-MC cells
Description: The CB1 and CB2 receptors are G-protein coupled receptors (GPCR), which influence cell function via the Gi-protein. These receptors modulate the activity of intracellular adenylate cyclase, which in turn produces the intracellular signal messenger cyclic-AMP (cAMP).
At baseline, or during non-ligand bound conditions, these receptors are constitutively active and tonically suppress adenylate cyclase activity. The binding of an agonist causes further receptor activation and produces additional suppression of adenylate cyclase activity. The binding of an inverse agonist inhibits the constitutive activity of the receptors and results in an increase in adenylate cyclase activity.
By monitoring intracellular adenylate cyclase activity, the ability of compounds to act as agonists or inverse agonists can be determined.
Test compounds were evaluated in SK-N-MC cells which, using standard transfection procedures, were stably transfected with human cDNA for pcDNA3-CRE β-gal and pcDNA3 CB1 receptor (human) or pcDNA3 CB2 receptor (human). By expressing CRE β-gal, the cells produced β-galactosidase in response to CRE promoter activation by cAMP. Cells expressing CRE β-gal and either the human CB1 or CB2 receptor will produce less β-galactosidase when treated with a CB1/CB2 agonist and will produce more β-galactosidase when treated with a CB1/CB2 inverse agonist.
The cells were grown in 96-well plates under standard cell culture conditions at 37° C. in a 5% CO2 atmosphere and culture media (wherein the media was supplemented with 2 mM L-glutamine, […] sodium pyruvate, 10% FBS (fetal bovine serum) and antibiotics).
For cells expressing CRE β-gal and the CB2 receptor, CB2 agonists reduced β-galactosidase activity in a dose-dependent manner and CB2 inverse agonists increase β-galactosidase activity in a dose-dependent manner.
The change in forskolin induced β-galactosidase activity was determined by setting a vehicle treated cell's activity value at 100% and expressing the β-galactosidase activity measured in a corresponding compound treated cell as a percent of the vehicle treated cell activity.
The EC50 value for functional activity for compounds tested was calculated by linear regression and was obtained from studies in which varying compound concentrations were used.

Male CD-1 mice = test: Oil of mustard induced colitis model; assay type: in vivo
Description: In the distal colon, the oil of mustard colitis model is characterized by a discontinuous pattern of mucosal epithelial damage, submucosal edema, infiltration of inflammatory cells (including macrophages, neutrophils and lymphocytes) into the mucosa and submucosa, increased wet weight of the colon, shrinkage of the colon length, diarrhea and apparent inflammation (see, Kimball E. S., Palmer J. M., D'Andrea M. R., Homby P. J. and Wade P. R., Acute colitis induction by oil of mustard results in later development of an IBS-like accelerated upper GI transit in mice, Am. J Physiol. Gastrointest. Liver Physiol., 2005, 288: G 1266-1273).
Male CD-1 mice (Charles River Laboratories, Kingston, N.C.) (9-11 weeks old) and fresh oil of mustard (OM) (allyl isothiocyanate, 98% purity, Sigma-Aldrich St. Louis, Mo.) were used.
The mice (9 per treatment group) were briefly anesthetized with ketamine/xylasine (Sigma, St. Louis, Mo.) and a solution of 0.5% OM in 30% ethanol (50 μL) was administered intracolonically (to a depth of 4 cm) via syringe (equipped with a ball-tipped 22 G needle).
A test compound was orally administered one day prior to colitis induction for assessing a prophylactic regimen or one day post-induction for assessing a therapeutic regimen. A test compound was orally administered daily thereafter. Two days after OM administration, the last test compound dose was administered.
Three days after OM administration, the animals were sacrificed. The colons were resected, examined for signs of inflammation, weighed after removing fecal contents and the length from the aboral end of the cecum to the anus was measured. The fecal contents were examined for signs of diarrhea. The distal colon between the 1st and the 4th centimeter was removed and placed in 10% neutral buffered formalin for histological analysis.
The macroscopic observations of colon inflammation (a measure of colon damage), colon weight and length and stool consistency and appearance were assigned a score and used to evaluate colitis severity.
The four observation scores for each colon were combined, whereby a combined score of 0 represents a normal colon and a combined score of 15 represents a maximally affected colon. Statistical analyses were performed in Graphpad Prism 4.0 using ANOVA.
Histological analyses of tissues consisted of staining paraffin-embedded tissue sections with hematoxylin-eosin dye. The tissues were examined using light microscopy by an investigator who was blinded to the sample groups.
The microscopic observations of epithelial damage, cellular infiltration and damage or alteration of smooth muscle architecture (a measure of muscle damage) were assigned a score and used to evaluate colitis severity.
The scores for each colon were combined, whereby a combined score of 0 represents a normal colon and a combined score of 9 represents a maximally affected colon. Statistical analyses were performed in Graphpad Prism 4.0 using ANOVA.
The Macroscopic Score and Microscopic Score results for each treatment group in the prophylactic and therapeutic regimens were each combined into a mean score and expressed as % inhibition of colitis (% Inh). Test (#) represents the number of experiments at each dose level.

[5] = test concentration 0.2 μM (footnote 2), 0.2 µM
[6] = Therapeutic Regimen, 5 mg/kg oral, 5 mg/kg
[7] = Prophylactic Regimen, 2.5 mg/kg oral
[8] = Prophylactic Regimen, 5 mg/kg oral
[9] = Therapeutic Regimen, 5 mg/kg oral
[10] = read-out: CB1 receptor binding percent inhibition, test concentration 0.2 μM (footnote 2)

With `O=C(N[C@@H](CO)c1ccccc1)c1n[nH]c2c1CCCCC2Cc1cccc(Cl)c1` (stereo in doubt) [Cpd 229, (8R*)-8-(3-chloro-benzyl)-1,4,5,6,7,8-hexahydro-cycloheptapyrazole-3-carboxylic acid [(1R)-2-hydroxy-1-phenyl-ethyl]-amide] the IC50 (CB1 receptor [1]) was 60 nM, the “CB1 receptor binding percent inhibition” value (CB1 receptor [1]; [5]) was 73% and the IC50 (CB2 receptor [2]) was 20 nM. The “CB2 receptor binding percent inhibition” value (CB2 receptor [2]; [5]) was 95%, the EC50 (CB1 receptor [3]) was 60 nM and the EC50 (CB2 receptor [4]) was 2 nM. For the same compound, the “% Inh (Macro), % inhibition of colitis, macroscopic score” value (“% Inh (Macro), % inhibition of colitis” for short) (Male CD-1 mice; [6]) was 56.9 ± 11.6%.
`C[C@H](NS(=O)(=O)/C=C/c1n[nH]c2c1CCCCC2Cc1ccc(F)cc1)c1ccccc1` (stereo partly drawn) [Cpd 108, (2E)-2-[8-(4-fluoro-benzyl)-1,4,5,6,7,8-hexahydro-cycloheptapyrazol-3-yl]-ethenesulfonic acid [(1S)-1-phenyl-ethyl]-amide] was tested, and the inhibition at 0.5 µM (CB1 receptor [1]; read-out: CB1 receptor binding percent inhibition, test concentration 0.5 μM (footnote 10)) was 33%, the inhibition at 1 µM (CB1 receptor [1]) was 55% and the “CB1 receptor binding percent inhibition” value (CB1 receptor [1]; test concentration not stated) was 44%. For the same compound, the “CB2 receptor binding percent inhibition” value (CB2 receptor [2]; test concentration not stated) was 100%, the “% Inh (Macro), % inhibition of colitis” value (Male CD-1 mice; [7]) was 51.2 ± 19.1% and the “% Inh (Macro), % inhibition of colitis” value (Male CD-1 mice; [8]) was 13.4 ± 13.3%.
Compound `C[C@H](NS(=O)(=O)/C=C/c1n[nH]c2c1CCCCC2Cc1cccc(F)c1)c1ccccc1` (stereo partly drawn) [Cpd 96, (2E)-2-[8-(3-fluoro-benzyl)-1,4,5,6,7,8-hexahydro-cycloheptapyrazol-3-yl]-ethenesulfonic acid [(1S)-1-phenyl-ethyl]-amide] has an inhibition at 1 µM (CB1 receptor [1]) of 0%, an inhibition at 0.015 µM (CB2 receptor [2]; test concentration 0.015 μM (footnote 7), read-out: CB2 receptor binding percent inhibition) of 50% and an inhibition at 1 µM (CB2 receptor [2]; test concentration 1 μM (footnote 1), read-out: CB2 receptor binding percent inhibition) of 94%. For the same compound, the “CB2 receptor binding percent inhibition” value (CB2 receptor [2]; test concentration not stated) was 72%, the “% Inh (Macro), % inhibition of colitis” value (Male CD-1 mice; [7]) was 8.0 ± 16.7% and the “% Inh (Macro), % inhibition of colitis” value (Male CD-1 mice; [8]) was 10.8 ± 13.4%. For the same compound, the “% Inh (Macro), % inhibition of colitis” value (Male CD-1 mice; [9]) was 7.6 ± 11.5%.
For `C[C@H](NC(=O)c1nn(-c2cc(Cl)ccc2Cl)c2c1CCCC/C2=C\c1ccc(Cl)cc1)c1ccccc1` [Cpd 198, (8E)-8-(4-chloro-benzylidene)-1-(2,5-dichloro-phenyl)-1,4,5,6,7,8-hexahydro-cycloheptapyrazole-3-carboxylic acid [(1S)-1-phenyl-ethyl]-amide], the IC50 (CB1 receptor [1]) was 20 nM, the inhibition at 0.2 µM (CB1 receptor [1]; read-out: CB1 receptor binding percent inhibition) was 87% and the inhibition at 0.2 µM (CB2 receptor [2]) was 68%. For the same compound, the EC50 (CB1 receptor [3]) was 20 nM and the “% Inh (Macro), % inhibition of colitis” value (Male CD-1 mice; [9]) was 41.0 ± 17%.
For `COC(=O)[C@@H](Cc1ccc(F)cc1)NC(=O)c1n[nH]c2c1CCCC/C2=C\c1cccc(Cl)c1` [Cpd 245, (8E)-(2R)-2-{[8-(3-chloro-benzylidene)-1,4,5,6,7,8-hexahydro-cycloheptapyrazole-3-carbonyl]-amino}-3-(4-fluoro-phenyl)-propionic acid methyl ester], the IC50 (CB1 receptor [1]) was 6 nM, the inhibition at 0.2 µM (CB1 receptor [1]; [10]) was 68% and the IC50 (CB2 receptor [2]) was 2 nM. The inhibition at 0.2 µM (CB2 receptor [2]) was 93%, the EC50 (CB1 receptor [3]) was 80 nM and the EC50 (CB2 receptor [4]) was 1 nM.
With `COC(=O)[C@@H](Cc1ccc(F)cc1)NC(=O)c1n[nH]c2c1CCCC/C2=C\c1ccc(Cl)cc1` [Cpd 247, (8E)-(2R)-2-{[8-(4-chloro-benzylidene)-1,4,5,6,7,8-hexahydro-cycloheptapyrazole-3-carbonyl]-amino}-3-(4-fluoro-phenyl)-propionic acid methyl ester] the IC50 (CB1 receptor [1]) was 2 nM, the inhibition at 0.2 µM (CB1 receptor [1]; [10]) was 91% and the IC50 (CB2 receptor [2]) was 1 nM. It also gave an inhibition at 0.2 µM (CB2 receptor [2]) of 96%, an EC50 (CB1 receptor [3]) of 8 nM and an EC50 (CB2 receptor [4]) of 4 nM.
In the case of `Cn1nc(C(=O)N[C@H](CO)Cc2ccc(O)cc2)c2c1/C(=C/c1cccc(F)c1)CCCC2` [Cpd 244, (8E)-(2S)-8-(3-fluoro-benzylidene)-1-methyl-1,4,5,6,7,8-hexahydro-cycloheptapyrazole-3-carboxylic acid [1-hydroxymethyl-2-(4-hydroxy-phenyl)-ethyl]-amide], the IC50 (CB1 receptor [1]) is reported as 100 nM, the inhibition at 0.2 µM (CB1 receptor [1]; [10]) is reported as 68% and the IC50 (CB2 receptor [2]) is reported as 20 nM. It also gave an inhibition at 0.2 µM (CB2 receptor [2]) of 78%, an EC50 (CB1 receptor [3]) of 600 nM and an EC50 (CB2 receptor [4]) of 5 nM.
With `O=C(N[C@@H](CO)c1ccccc1)c1n[nH]c2c1CCCCC2Cc1cccc(Cl)c1` (stereo in doubt) [Cpd 228, (8S*)-8-(3-chloro-benzyl)-1,4,5,6,7,8-hexahydro-cycloheptapyrazole-3-carboxylic acid [(1R)-2-hydroxy-1-phenyl-ethyl]-amide] the “CB1 receptor binding percent inhibition” value (CB1 receptor [1]; [5]) was “^(2)0%”, the “CB2 receptor binding percent inhibition” value (CB2 receptor [2]; [5]) was “^(2)45%” and the “% Inh (Macro), % inhibition of colitis” value (Male CD-1 mice; [6]) was 51.7 ± 13.2%.
With `Cn1nc(C(=O)N[C@@H](CO)c2ccccc2)c2c1/C(=C/c1cccc(F)c1)CCCC2` [Cpd 242, (8E)-8-(3-fluoro-benzylidene)-1-methyl-1,4,5,6,7,8-hexahydro-cycloheptapyrazole-3-carboxylic acid [(1R)-2-hydroxy-1-phenyl-ethyl]-amide] the IC50 (CB1 receptor [1]) was 20 nM, the inhibition at 0.2 µM (CB1 receptor [1]; [10]) was 80% and the IC50 (CB2 receptor [2]) was 100 nM. The inhibition at 0.2 µM (CB2 receptor [2]) was 50%, the EC50 (CB1 receptor [3]) was 30 nM and the EC50 (CB2 receptor [4]) was 11 nM.
